From ChEMBL document CHEMBL4219043, “Beyond the Rule of 5: Lessons Learned from AbbVie's Drugs and Compound Collection” (J Med Chem, 2018)
Converted amounts (≈) assume the structure as drawn.

Tests used:
Hepatitis C virus [1] = assay: Antiviral activity against HCV genotype 1a H77 infected in human HuH7 replicon cells after 3 days in absence of human plasma by luciferase reporter gene assay; type: functional, organism-based, Hepacivirus hominis; conditions: genotype 1a H77, Huh-7, 72 h
Hepatitis C virus [2] = assay: Antiviral activity against HCV genotype 1a H77 infected in human HuH7 replicon cells after 3 days in presence of 40% human plasma by luciferase reporter gene assay; type: functional, organism-based, Hepacivirus hominis; conditions: genotype 1a H77, Huh-7, 72 h
Hepatitis C virus [3] = assay: Antiviral activity against HCV genotype 1b Con1 infected in human HuH7 replicon cells after 3 days in absence of human plasma by luciferase reporter gene assay; type: functional, organism-based, Hepacivirus hominis; conditions: isolate Con1, Huh-7, 72 h
Hepatitis C virus [4] = assay: Antiviral activity against HCV genotype 1b Con1 infected in human HuH7 replicon cells after 3 days in presence of 40% human plasma by luciferase reporter gene assay; type: functional, organism-based, Hepacivirus hominis; conditions: isolate Con1, Huh-7, 72 h
Hepatitis C virus [5] = assay: Antiviral activity against HCV genotype 3a infected in human HuH7 replicon cells after 3 days in absence of human plasma by luciferase reporter gene assay; type: functional, organism-based, Hepacivirus hominis; conditions: Huh-7, 72 h
Hepatitis C virus [6] = assay: Antiviral activity against HCV genotype 1a H77 harboring NS3 R155K mutant infected in human HuH7 replicon cells after 3 days by luciferase reporter gene assay; type: functional, organism-based, Hepacivirus hominis; conditions: genotype 1a H77, Huh-7, 72 h
Hepatitis C virus [7] = assay: Antiviral activity against HCV genotype 1a H77 harboring NS3 D168V mutant infected in human HuH7 replicon cells after 3 days by luciferase reporter gene assay; type: functional, organism-based, Hepacivirus hominis; conditions: genotype 1a H77, Huh-7, 72 h
Hepatitis C virus [8] = assay: Antiviral activity against HCV genotype 1b Con1 harboring NS3 R155K mutant infected in human HuH7 replicon cells after 3 days by luciferase reporter gene assay; type: functional, organism-based, Hepacivirus hominis; conditions: isolate Con1, Huh-7, 72 h
Hepatitis C virus [9] = assay: Antiviral activity against HCV genotype 1b Con1 harboring NS3 D168V mutant infected in human HuH7 replicon cells after 3 days by luciferase reporter gene assay; type: functional, organism-based, Hepacivirus hominis; conditions: isolate Con1, Huh-7, 72 h
Hepatitis C virus [10] = assay: Resistance index, ratio of EC50 for HCV genotype 1a H77 harboring NS3 R155K mutant infected in human HuH7 replicon cells to EC50 for HCV genotype 1a H77 harboring wild type NS3 infected in human HuH7 replicon cells; type: functional, Hepacivirus hominis
Hepatitis C virus [11] = assay: Resistance index, ratio of EC50 for HCV genotype 1a H77 harboring NS3 D168V mutant infected in human HuH7 replicon cells to EC50 for HCV genotype 1a H77 harboring wild type NS3 infected in human HuH7 replicon cells; type: functional, Hepacivirus hominis
Hepatitis C virus [12] = assay: Resistance index, ratio of EC50 for HCV genotype 1b Con1 harboring NS3 R155K mutant infected in human HuH7 replicon cells to EC50 for HCV genotype 1b Con1 harboring wild type NS3 infected in human HuH7 replicon cells; type: functional, Hepacivirus hominis, isolate Con1
Hepatitis C virus [13] = assay: Resistance index, ratio of EC50 for HCV genotype 1b Con1 harboring NS3 D168V mutant infected in human HuH7 replicon cells to EC50 for HCV genotype 1b Con1 harboring wild type NS3 infected in human HuH7 replicon cells; type: functional, Hepacivirus hominis, isolate Con1
[14] = Half life in iv dosed rat by LC-MS/MS analysis; type: ADME, organism-based; conditions: in vivo
[15] = Plasma clearance in iv dosed rat by LC-MS/MS analysis; type: ADME, organism-based
[16] = Half life in po dosed rat by LC-MS/MS analysis; type: ADME, organism-based; conditions: in vivo
Rattus norvegicus = assay: Dose normalized AUC in po dosed rat after 24 hrs by LC-MS/MS analysis; type: ADME, organism-based; conditions: in vivo
[17] = Oral bioavailability in rat by LC-MS/MS analysis; type: ADME, organism-based; conditions: in vivo
[18] = Half life in dog at 1 mg/kg, iv by LC-MS/MS analysis; type: ADME, organism-based, Canis lupus familiaris; conditions: in vivo
[19] = Plasma clearance in dog at 1 mg/kg, iv by LC-MS/MS analysis; type: ADME, organism-based, Canis lupus familiaris
[20] = Half life in dog at 3 mg/kg, po by LC-MS/MS analysis; type: ADME, organism-based, Canis lupus familiaris; conditions: in vivo
Canis familiaris [21] = assay: Dose normalized AUC in dog at 3 mg/kg, po after 24 hrs by LC-MS/MS analysis; type: ADME, organism-based, Canis lupus familiaris; conditions: in vivo
Canis familiaris [22] = assay: Fraction of drug absorbed into portal vein in dog at 3 mg/kg, po by LC-MS/MS analysis; type: ADME, organism-based, Canis lupus familiaris; conditions: in vivo
Hepatitis C virus [23] = assay: Ratio of EC50 in presence of 40% human plasma to EC50 in absence of human plasma for HCV genotype 1a H77 infected in human HuH7 replicon cells; type: functional, Hepacivirus hominis
[24] = Solubility in pH 7.2 buffer; type: physicochemical
[25] = Apparent permeability of the compound by PAMPA; type: ADME
[26] = Ratio of EC50 for HCV genotype 3a infected in human HuH7 replicon cells to EC50 for HCV genotype 1a H77 infected in human HuH7 replicon cells; type: functional
[27] = Oral bioavailability in dog at 3 mg/kg by LC-MS/MS analysis; type: ADME, organism-based, Canis lupus familiaris; conditions: in vivo
RS4-11 = assay: Antiproliferative activity against human RS4:11 cells in presence of 10% human serum; type: functional, cell-based
MOLT-4 = assay: Antiproliferative activity against human MOLT4 cells in presence of 10% human serum; type: functional, cell-based

SMILES | EC50 (Hepatitis C virus [1]) [nM] | EC50 (Hepatitis C virus [2]) [nM] | EC50 (Hepatitis C virus [3]) [nM] | EC50 (Hepatitis C virus [4]) [nM] | EC50 (Hepatitis C virus [7]) [nM] | EC50 (Hepatitis C virus [9]) [nM] | Ratio EC50 (Hepatitis C virus [10]) | Ratio EC50 (Hepatitis C virus [11]) | Ratio EC50 (Hepatitis C virus [12]) | Ratio EC50 (Hepatitis C virus [13]) | half-life [14] [min] | clearance [15] [mL/min/kg] | AUC/dose (Rattus norvegicus) [µg·h/mL] | bioavailability [17] [%] | half-life [18] [min] | clearance [19] [mL/min/kg] | AUC/dose (Canis familiaris [21]) [µg·h/mL] | FaFg (Canis familiaris [22]) | Ratio EC50 (Hepatitis C virus [23]) | Solubility [24] [µM] | further results
Cc1cc(C(=O)N[C@H]2CCCCC/C=C\[C@@H]3C[C@@]3(C(=O)NS(=O)(=O)C3(C)CC3)NC(=O)[C@@H]3C[C@@H](Oc4nc5cc(F)ccc5nc4C(F)(F)F)CN3C2=O)no1 | 0.7 | 9 | 0.5 | 11 | 14 | 1.3 | 3 | 127 | 1 | 4 | 246 | 26.7 | 0.19 | 27 | 174 | 0.333 | 46.8 | 0.9 | 6 - 35 | 20.6 (≈ 16.6 µg/mL) | EC50 (Hepatitis C virus [5]): 124 nM; EC50 (Hepatitis C virus [6]): 0.3 nM; EC50 (Hepatitis C virus [8]): 0.4 nM; half-life [16]: 282 min; half-life [20]: 174 min; Papp [25]: 12.1 ×10⁻⁶ cm/s
Cc1cc(C(=O)N[C@H]2CCCCC/C=C\[C@@H]3C[C@@]3(C(=O)NS(=O)(=O)C3CC3)NC(=O)[C@@H]3C[C@@H](Oc4nc5cc(F)ccc5nc4C(F)(F)F)CN3C2=O)no1 | 0.8 | 7 | 0.5 | 7 | 14 | 1.5 | 3 | 149 | 1 | 5 | 126 | 38.3 | 0.14 | 28 | 210 | 0.667 | 18 | 0.8 | 6 - 35 | 155 (≈ 123 µg/mL) | Ratio EC50 [26]: >80; EC50 (Hepatitis C virus [5]): 64 to 83 nM; EC50 (Hepatitis C virus [6]): 0.3 nM; half-life [16]: 114 min; half-life [20]: 132 min; Papp [25]: 5.1 ×10⁻⁶ cm/s
CC(=O)N(C)[C@@H](CC(C)(C)C)C(=O)N[C@H]1CCCCC/C=C\[C@@H]2C[C@@]2(C(=O)NS(=O)(=O)C2(C)CC2)NC(=O)[C@@H]2C[C@@H](Oc3nc4cc(F)ccc4c4ccccc34)CN2C1=O | 0.5 | 7 | 2 | 12 | 0.4 | 3 | 0.8 | 2 | 33 | 11 | 102 | 51.7 | 0.09 | 27 | 132 | 1.17 | 11.6 | 0.8 | 6 - 35 | 2.2 (≈ 1.89 µg/mL) | EC50 (Hepatitis C virus [5]): 4 to 8 nM; EC50 (Hepatitis C virus [6]): 0.6 nM; EC50 (Hepatitis C virus [8]): 8 nM; half-life [16]: 90 min; half-life [20]: 126 min; bioavailability [27]: 76%; Papp [25]: 0.28 ×10⁻⁶ cm/s
Cc1cc(C(=O)N[C@H]2CCCCC/C=C\[C@@H]3C[C@@]3(C(=O)NS(=O)(=O)C3(C)CC3)NC(=O)[C@@H]3C[C@@H](Oc4nc5ccccc5c5ccc(F)cc45)CN3C2=O)no1 | 0.7 | 6 | 0.5 | 8 | 8 | 0.9 | 18 | 168 | 4 | 9 | 192 | 41.7 | 0.16 | 40 | 138 | 0.333 | 85 | 1.4 | 6 - 35 | 1.9 (≈ 1.5 µg/mL) | EC50 (Hepatitis C virus [5]): 4 to 7 nM; EC50 (Hepatitis C virus [8]): 0.4 nM; half-life [16]: 210 min; half-life [20]: 120 min; bioavailability [27]: 140%; Papp [25]: 0.19 ×10⁻⁶ cm/s
Cc1cc(C(=O)N[C@H]2CCCCC/C=C\[C@@H]3C[C@@]3(C(=O)NS(=O)(=O)C3CC3)NC(=O)[C@@H]3C[C@@H](Oc4nc5ccccc5nc4C)CN3C2=O)no1 | 1.4 | 30 | 0.4 | 9 | 94 | 5 | 6 | 177 | 2 | 2 | 144 | 78.3 | 0.008 | 3.9 | 84 | 7.83 | 0.3 | 0.2 | 6 - 35 | > 500 | EC50 (Hepatitis C virus [6]): 3 nM; EC50 (Hepatitis C virus [8]): 2 nM; bioavailability [27]: 13%; Papp [25]: 3.5 ×10⁻⁶ cm/s
CN(C)CC[C@H](CSc1ccccc1)Nc1ccc(S(=O)(=O)NC(=O)c2ccc(N3CCN(Cc4ccccc4-c4ccc(Cl)cc4)CC3)cc2)cc1[N+](=O)[O-] [ABT 737] | – | – | – | – | – | – | – | – | – | – | – | – | – | – | – | – | – | – | – | – | EC50 (RS4-11): 24 nM; EC50 (MOLT-4): 622 nM
CC1(C)CCC(CN2CCN(c3ccc(C(=O)NS(=O)(=O)c4ccc(NCC5CCOCC5)c([N+](=O)[O-])c4)c(Oc4cnc5[nH]ccc5c4)c3)CC2)=C(c2ccc(Cl)cc2)C1 [VENETOCLAX] | – | – | – | – | – | – | – | – | – | – | – | – | – | – | – | – | – | – | – | – | EC50 (RS4-11): 8 nM; EC50 (MOLT-4): > 5000 nM
